Measurements reported in patent US7326703B2, “(1,10B-Dihydro-2-(aminocarbonyl-phenyl)-5H-pyrazolo[1,5-c][1,3]benzoxazin-5-yl)phenyl methanone derivatives as HIV viral replication inhibitors” (priority 2004, dated 2008).
Read-outs that look alike come from different tables or passages of the source.

Experiments:
[1] = tested on: HIV-1-MDR; assay: Cellular anti-viral assay in MT4-LTR-EGFP cells, multi-drug resistant HIV-1 virus; format: cell-based; settings: Human immunodeficiency virus 1, 72 h, read-out: Activity class for HIV-1-MDR test
Method: (§1) The compounds were tested in a cellular assay using the MT4-LTR-EGFP cells for anti-viral activity. […] The cellular assay was performed according to the following procedure.
(§2) HIV- or mock-infected MT4-LTR-EGFP cells were incubated for three days in the presence of various concentrations of the inhibitor. Upon infection, the GFP reporter is activated by the viral tat protein. At the end of the incubation period, the GFP signal was measured. In the virus control samples (in the absence of any inhibitor) the maximal fluorescent signal was obtained. The inhibitory activity of the compound was monitored on the virus-infected cells and was expressed as EC50 and EC90. These values represent the amount of the compound required to protect 50% and 90%, respectively, of the cells from virus infection. The toxicity of the compound was measured on the mock-infected cells and was expressed as CC50, which represents the concentration of compound required to inhibit the growth of the cells by 50%. The selectivity index (SI) (ratio CC50/EC50) is an indication of the selectivity of the anti-HIV activity of the inhibitor.

[2] = tested on: HIV-1 strain LAI; assay: Cellular anti-viral assay in MT4-LTR-EGFP cells, wild type HIV-1 strain LAI; format: cell-based; settings: Human immunodeficiency virus 1, 72 h, read-out: Activity class for HIV-1-LAI test
Method: as §1, §2

[3] = MT4-LTR-EGFP cells, three days incubation, GFP signal, average EC50 used where more than one run

O=C(NC1CCCCC1)c1ccc(C2=NN3C(C(=O)c4ccc(F)cc4)Oc4ccccc4C3C2)cc1 (centres unmarked) [Compound 1]
EC50 [1]: > 10 µM | EC50 [2, 3]: 1 to 10 µM

O=C(NCC1CCCCC1)c1ccc(C2=NN3C(C(=O)c4ccc(F)cc4)Oc4ccccc4C3C2)cc1 (centres unmarked) [Compound 2]
EC50 [1]: > 10 µM | EC50 [2, 3]: > 10 µM

CN(C)CCCNC(=O)c1ccc(C2=NN3C(C(=O)c4ccc(F)cc4)Oc4ccccc4C3C2)cc1 (centres unmarked) [Compound 3]
EC50 [1]: > 10 µM | EC50 [2, 3]: > 10 µM

O=C(NCc1ccccn1)c1ccc(C2=NN3C(C(=O)c4ccc(Br)cc4)Oc4ccccc4C3C2)cc1 (centres unmarked) [Compound 4]
EC50 [2, 3]: 1 to 10 µM

COc1ccc(CNC(=O)c2ccc(C3=NN4C(C(=O)c5ccc(Br)cc5)Oc5ccccc5C4C3)cc2)cc1 (centres unmarked) [Compound 5]
EC50 [1]: > 10 µM | EC50 [2, 3]: < 1 µM

O=C(NC1CCCC1)c1ccc(C2=NN3C(C(=O)c4ccc(Br)cc4)Oc4ccccc4C3C2)cc1 (centres unmarked) [Compound 6]
EC50 [1]: > 10 µM | EC50 [2, 3]: < 1 µM

O=C(NCCc1ccccn1)c1ccc(C2=NN3C(C(=O)c4ccc(Br)cc4)Oc4ccccc4C3C2)cc1 (centres unmarked) [Compound 7]
EC50 [1]: > 10 µM | EC50 [2, 3]: 1 to 10 µM

CN1CCN(C(=O)c2ccc(C3=NN4C(C(=O)c5ccc(Br)cc5)Oc5ccccc5C4C3)cc2)CC1 (centres unmarked) [Compound 8]
EC50 [1]: > 10 µM

CN(C)CCCNC(=O)c1ccc(C2=NN3C(C(=O)c4ccc(Br)cc4)Oc4ccccc4C3C2)cc1 (centres unmarked) [Compound 9]
EC50 [1]: > 10 µM | EC50 [2, 3]: < 1 µM

O=C(NCc1cccc(F)c1)c1ccc(C2=NN3C(C(=O)c4ccc(F)cc4)Oc4ccccc4C3C2)cc1 (centres unmarked) [Compound 10]
EC50 [1]: > 10 µM | EC50 [2, 3]: > 10 µM

O=C(c1ccc(F)cc1)C1Oc2ccccc2C2CC(c3ccc(C(=O)N4CCc5ccccc5C4)cc3)=NN12 (centres unmarked) [Compound 11]
EC50 [1]: > 10 µM | EC50 [2, 3]: > 10 µM

O=C(NCC1CCCO1)c1ccc(C2=NN3C(C(=O)c4ccc(F)cc4)Oc4ccccc4C3C2)cc1 (centres unmarked) [Compound 12]
EC50 [1]: > 10 µM | EC50 [2, 3]: 1 to 10 µM

CN(C)CCNC(=O)c1ccc(C2=NN3C(C(=O)c4ccc(F)cc4)Oc4ccccc4C3C2)cc1 (centres unmarked) [Compound 13]
EC50 [1]: > 10 µM | EC50 [2, 3]: 1 to 10 µM

CC(C)(C)OC(=O)N1CCN(C(=O)c2ccc(C3=NN4C(C(=O)c5ccc(F)cc5)Oc5ccccc5C4C3)cc2)CC1 (centres unmarked) [Compound 14]
EC50 [1]: > 10 µM | EC50 [2, 3]: > 10 µM

O=C(c1ccc(F)cc1)C1Oc2ccccc2C2CC(c3ccc(C(=O)N4CCN(Cc5ccccc5)CC4)cc3)=NN12 (centres unmarked) [Compound 15]
EC50 [1]: > 10 µM | EC50 [2, 3]: > 10 µM

O=C(NCc1ccccn1)c1ccc(C2=NN3C(C(=O)c4ccc(F)cc4)Oc4ccccc4C3C2)cc1 (centres unmarked) [Compound 16]
EC50 [1]: > 10 µM | EC50 [2, 3]: > 10 µM

O=C(c1ccc(F)cc1)C1Oc2ccccc2C2CC(c3ccc(C(=O)N4CCCCCC4)cc3)=NN12 (centres unmarked) [Compound 17]
EC50 [1]: > 10 µM | EC50 [2, 3]: < 1 µM

O=C(NC1CCCC1)c1ccc(C2=NN3C(C(=O)c4ccc(F)cc4)Oc4ccccc4C3C2)cc1 (centres unmarked) [Compound 18]
EC50 [2, 3]: < 1 µM

O=C(NCCc1ccccn1)c1ccc(C2=NN3C(C(=O)c4ccc(F)cc4)Oc4ccccc4C3C2)cc1 (centres unmarked) [Compound 19]
EC50 [1]: > 10 µM | EC50 [2, 3]: 1 to 10 µM

CN(C)CCCN(C)C(=O)c1ccc(C2=NN3C(C(=O)c4ccc(F)cc4)Oc4ccccc4C3C2)cc1 (centres unmarked) [Compound 20]
EC50 [1]: 1 to 10 µM | EC50 [2, 3]: 1 to 10 µM

COc1ccc(CNC(=O)c2ccc(C3=NN4C(C(=O)c5ccc(F)cc5)Oc5ccccc5C4C3)cc2)cc1 (centres unmarked) [Compound 21]
EC50 [1]: > 10 µM | EC50 [2, 3]: > 10 µM

CC(C)CC(C)NC(=O)c1ccc(C2=NN3C(C(=O)c4ccc(F)cc4)Oc4ccccc4C3C2)cc1 (centres unmarked) [Compound 22]
EC50 [1]: > 10 µM | EC50 [2, 3]: < 1 µM

COc1ccccc1CNC(=O)c1ccc(C2=NN3C(C(=O)c4ccc(F)cc4)Oc4ccccc4C3C2)cc1 (centres unmarked) [Compound 23]
EC50 [1]: > 10 µM | EC50 [2, 3]: > 10 µM

COc1cccc(CNC(=O)c2ccc(C3=NN4C(C(=O)c5ccc(F)cc5)Oc5ccccc5C4C3)cc2)c1 (centres unmarked) [Compound 24]
EC50 [1]: 1 to 10 µM | EC50 [2, 3]: 1 to 10 µM

COc1ccc(OC)c(CNC(=O)c2ccc(C3=NN4C(C(=O)c5ccc(F)cc5)Oc5ccccc5C4C3)cc2)c1 (centres unmarked) [Compound 25]
EC50 [1]: 1 to 10 µM | EC50 [2, 3]: 1 to 10 µM

COc1ccc(NC(=O)c2ccc(C3=NN4C(C(=O)c5ccc(F)cc5)Oc5ccccc5C4C3)cc2)cc1 (centres unmarked) [Compound 26]
EC50 [1]: 1 to 10 µM | EC50 [2, 3]: 1 to 10 µM

CN(C)c1ccc(NC(=O)c2ccc(C3=NN4C(C(=O)c5ccc(F)cc5)Oc5ccccc5C4C3)cc2)cc1 (centres unmarked) [Compound 27]
EC50 [1]: < 1 µM | EC50 [2, 3]: < 1 µM

COc1ccc(N(C)C(=O)c2ccc(C3=NN4C(C(=O)c5ccc(F)cc5)Oc5ccccc5C4C3)cc2)cc1 (centres unmarked) [Compound 28]
EC50 [1]: < 1 µM | EC50 [2, 3]: < 1 µM

O=C(Nc1cccnc1)c1ccc(C2=NN3C(C(=O)c4ccc(F)cc4)Oc4ccccc4C3C2)cc1 (centres unmarked) [Compound 29]
EC50 [1]: < 1 µM | EC50 [2, 3]: 1 to 10 µM

O=C(NCc1cccs1)c1ccc(C2=NN3C(C(=O)c4ccc(F)cc4)Oc4ccccc4C3C2)cc1 (centres unmarked) [Compound 30]
EC50 [1]: > 10 µM | EC50 [2, 3]: > 10 µM

O=C(NCc1ccco1)c1ccc(C2=NN3C(C(=O)c4ccc(F)cc4)Oc4ccccc4C3C2)cc1 (centres unmarked) [Compound 31]
EC50 [1]: 1 to 10 µM | EC50 [2, 3]: 1 to 10 µM

CCNC(=O)c1ccc(C2=NN3C(C(=O)c4ccc(F)cc4)Oc4ccccc4C3C2)cc1 (centres unmarked) [Compound 32]
EC50 [1]: 1 to 10 µM | EC50 [2, 3]: > 10 µM

CC(C)NC(=O)c1ccc(C2=NN3C(C(=O)c4ccc(F)cc4)Oc4ccccc4C3C2)cc1 (centres unmarked) [Compound 33]
EC50 [1]: < 1 µM | EC50 [2, 3]: < 1 µM

CN1CCC(NC(=O)c2ccc(C3=NN4C(C(=O)c5ccc(F)cc5)Oc5ccccc5C4C3)cc2)CC1 (centres unmarked) [Compound 34]
EC50 [1]: > 10 µM | EC50 [2, 3]: 1 to 10 µM

CN1CCN(C(=O)c2ccc(C3=NN4C(C(=O)c5ccc(F)cc5)Oc5ccccc5C4C3)cc2)CC1 (centres unmarked) [Compound 35]
EC50 [1]: > 10 µM | EC50 [2, 3]: < 1 µM

CN(C(=O)c1ccc(C2=NN3C(C(=O)c4ccc(F)cc4)Oc4ccccc4C3C2)cc1)C1CCCCC1 (centres unmarked) [Compound 36]
EC50 [2, 3]: < 1 µM

C=CCN(C(=O)c1ccc(C2=NN3C(C(=O)c4ccc(F)cc4)Oc4ccccc4C3C2)cc1)C1CCCCC1 (centres unmarked) [Compound 37]
EC50 [1]: > 10 µM | EC50 [2, 3]: 1 to 10 µM

O=C(NC1CCC1)c1ccc(C2=NN3C(C(=O)c4ccc(F)cc4)Oc4ccccc4C3C2)cc1 (centres unmarked) [Compound 38]
EC50 [1]: 1 to 10 µM | EC50 [2, 3]: < 1 µM

CN(C)CCN(C)C(=O)c1ccc(C2=NN3C(C(=O)c4ccc(F)cc4)Oc4ccccc4C3C2)cc1 (centres unmarked) [Compound 39]
EC50 [1]: 1 to 10 µM | EC50 [2, 3]: < 1 µM

O=C(NCCN1CCCC1)c1ccc(C2=NN3C(C(=O)c4ccc(F)cc4)Oc4ccccc4C3C2)cc1 (centres unmarked) [Compound 40]
EC50 [1]: > 10 µM | EC50 [2, 3]: 1 to 10 µM

CC(C)(C)NCCNC(=O)c1ccc(C2=NN3C(C(=O)c4ccc(F)cc4)Oc4ccccc4C3C2)cc1 (centres unmarked) [Compound 41]
EC50 [1]: > 10 µM | EC50 [2, 3]: 1 to 10 µM

CCN(CC)CCNC(=O)c1ccc(C2=NN3C(C(=O)c4ccc(F)cc4)Oc4ccccc4C3C2)cc1 (centres unmarked) [Compound 42]
EC50 [1]: > 10 µM | EC50 [2, 3]: 1 to 10 µM

CN(C)CCN(Cc1ccccc1)C(=O)c1ccc(C2=NN3C(C(=O)c4ccc(F)cc4)Oc4ccccc4C3C2)cc1 (centres unmarked) [Compound 43]
EC50 [1]: > 10 µM | EC50 [2, 3]: 1 to 10 µM

N#Cc1ccc(C(=O)C2Oc3ccccc3C3CC(c4ccc(C(=O)NC5CCCC5)cc4)=NN23)cc1 (centres unmarked) [Compound 44, 4-[5-(4-Cyano-Benzoyl)-1,10b-Dihydro-5H-Pyrazolo[1,5-c][1,3]Benzoxazin-2-yl]-N-Cyclopentyl-Benzamide]
EC50 [1]: < 1 µM | EC50 [2]: < 1 µM

CCCc1ccc(C(=O)C2Oc3ccccc3C3CC(c4ccc(C(=O)NC5CCCC5)cc4)=NN23)cc1 (centres unmarked) [Compound 45]
EC50 [1]: < 1 µM | EC50 [2, 3]: < 1 µM

CSc1ccc(C(=O)C2Oc3ccccc3C3CC(c4ccc(C(=O)NC5CCCC5)cc4)=NN23)cc1 (centres unmarked) [Compound 46]
EC50 [1]: < 1 µM | EC50 [2, 3]: < 1 µM

CCc1ccc(C(=O)C2Oc3ccccc3C3CC(c4ccc(C(=O)NC5CCCC5)cc4)=NN23)cc1 (centres unmarked) [Compound 47]
EC50 [1]: < 1 µM | EC50 [2, 3]: < 1 µM

O=C(NC1CCCC1)c1ccc(C2=NN3C(C(=O)c4ccc(N5CCOCC5)cc4)Oc4ccccc4C3C2)cc1 (centres unmarked) [Compound 48]
EC50 [1]: 1 to 10 µM | EC50 [2, 3]: 1 to 10 µM

O=C(NC1CCCC1)c1ccc(C2=NN3C(C(=O)c4ccc(N5CCCCC5)cc4)Oc4ccccc4C3C2)cc1 (centres unmarked) [Compound 49]
EC50 [2, 3]: > 10 µM

CC(C)(C)c1ccc(C(=O)C2Oc3ccccc3C3CC(c4ccc(C(=O)NC5CCCC5)cc4)=NN23)cc1 (centres unmarked) [Compound 50]
EC50 [1]: < 1 µM | EC50 [2, 3]: < 1 µM

COc1ccc(C(=O)C2Oc3ccccc3C3CC(c4ccc(C(=O)NC5CCCC5)cc4)=NN23)cc1 (centres unmarked) [Compound 51]
EC50 [1]: < 1 µM

O=C(NC1CCCC1)c1ccc(C2=NN3C(C(=O)c4ccc([N+](=O)[O-])cc4)Oc4ccccc4C3C2)cc1 (centres unmarked) [Compound 52]
EC50 [1]: < 1 µM | EC50 [2, 3]: < 1 µM

CS(=O)(=O)c1ccc(C(=O)C2Oc3ccccc3C3CC(c4ccc(C(=O)NC5CCCC5)cc4)=NN23)cc1 (centres unmarked) [Compound 53]
EC50 [1]: < 1 µM | EC50 [2, 3]: < 1 µM

O=C(NC1CCCC1)c1ccc(C2=NN3C(C(=O)c4ccc(C5CCCCC5)cc4)Oc4ccccc4C3C2)cc1 (centres unmarked) [Compound 54]
EC50 [1]: 1 to 10 µM | EC50 [2, 3]: 1 to 10 µM

O=C(NC1CCCC1)c1ccc(C2=NN3C(C(=O)c4ccc(C(F)(F)F)cc4)Oc4ccccc4C3C2)cc1 (centres unmarked) [Compound 55]
EC50 [1]: < 1 µM | EC50 [2, 3]: < 1 µM
